# How the values were obtained:
# FLT3 = target: T1, FLT3 (Homo sapiens, UniProt P36888); experiment: Competition binding assay, FLT3 Kd; details: competition binding
# T1 construct: made in house
# T1 sequence (P36888 27-993): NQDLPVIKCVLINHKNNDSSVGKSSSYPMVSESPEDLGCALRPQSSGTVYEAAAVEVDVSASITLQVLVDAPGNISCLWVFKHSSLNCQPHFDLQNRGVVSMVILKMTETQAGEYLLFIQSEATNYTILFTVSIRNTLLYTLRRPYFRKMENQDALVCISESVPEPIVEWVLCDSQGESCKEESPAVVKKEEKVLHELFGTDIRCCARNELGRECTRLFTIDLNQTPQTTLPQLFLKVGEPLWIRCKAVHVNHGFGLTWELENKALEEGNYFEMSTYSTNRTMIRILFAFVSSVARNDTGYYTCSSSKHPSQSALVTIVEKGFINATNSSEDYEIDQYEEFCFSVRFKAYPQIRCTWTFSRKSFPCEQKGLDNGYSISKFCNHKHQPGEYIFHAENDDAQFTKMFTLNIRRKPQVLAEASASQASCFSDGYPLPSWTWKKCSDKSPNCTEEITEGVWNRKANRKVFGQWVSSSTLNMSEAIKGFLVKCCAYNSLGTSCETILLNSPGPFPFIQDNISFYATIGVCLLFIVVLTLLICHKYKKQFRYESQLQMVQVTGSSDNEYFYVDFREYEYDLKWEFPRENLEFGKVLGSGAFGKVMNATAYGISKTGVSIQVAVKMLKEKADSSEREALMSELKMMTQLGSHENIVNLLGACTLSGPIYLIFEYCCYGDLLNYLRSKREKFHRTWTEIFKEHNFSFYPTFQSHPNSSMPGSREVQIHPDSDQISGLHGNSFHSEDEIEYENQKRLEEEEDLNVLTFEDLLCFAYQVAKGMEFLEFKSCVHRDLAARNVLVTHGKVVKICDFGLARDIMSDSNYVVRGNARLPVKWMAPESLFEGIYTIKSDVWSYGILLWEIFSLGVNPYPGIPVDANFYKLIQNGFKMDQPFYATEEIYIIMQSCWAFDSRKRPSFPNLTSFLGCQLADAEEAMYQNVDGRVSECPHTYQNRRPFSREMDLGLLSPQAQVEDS
# In short: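 Kinases, either T7 phage fusions or HEK-293-expressed and DNA-tagged, competed with test compounds for immobilized biotinylated affinity ligand on streptavidin beads in binding buffer (20% SeaBlock, 0.17×PBS, 0.05% Tween 20, 6 mM DTT). After 1 hour at room temperature, bead-bound kinase was eluted and quantified by qPCR; Kd from eleven-point threefold dilutions.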
# M-NFS-60 cells = experiment: M-NFS-60 cell proliferation assay (Alamar Blue); assay type: cell-based, mouse; details: Mus musculus; M-NFS-60 cell proliferation; read-out: CSF1R M-NFS-60 CTB:IC50
# In short: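 Mouse M-NFS-60 cells growing on 20 ng/mL M-CSF in RPMI/10% FBS were exposed to compounds (9 half-log concentrations, 0.5% DMSO) for 72 h at 37 °C. Viability read by Alamar Blue fluorescence (ex 560/em 590 nm, 3 h). IC50 = 50% proliferation inhibition versus control, mean of duplicates.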
SMILES,Kd (FLT3),IC50 (M-NFS-60 cells)
"C=Cc1ccc2c(c1)ncn2Cc1ccc2nc(N[C@@H]3CCC[C@@H](O)[C@H]3O)sc2c1 [Example 232, (1R,2S,3R)-3-((6-((5-vinyl-1H-benzo[d]imidazol-1-yl)methyl)benzo[d]thiazol-2-yl)amino)cyclohexane-1,2-diol]",≤ 200 nM,≤ 50 nM
"N#Cc1ccc2c(c1)ncn2Cc1ccc2nc(N[C@@H]3CCCC[C@H]3O)oc2c1 [Example 170, 1-((2-(((1R,2R)-2-hydroxycyclohexyl)amino)benzo[d]oxazol-6-yl)methyl)-1H-benzo[d]imidazole-5-carbonitrile]",> 5000 nM,> 1500 nM
"O[C@@H]1CCCC[C@H]1Nc1nc2ccc(Cn3cnc4cc(F)c(F)cc43)cc2s1 [Example 128, (1R,2R)-2-((6-((5,6-difluoro-1H-benzo[d]imidazol-1-yl)methyl)benzo[d]thiazol-2-yl)amino)cyclohexanol]",> 5000 nM,400 to 1500 nM
